Source: US8795222B2, “Device and method for treatment of surface infections with nitric oxide” (Pulmonox Technologies Corp., priority 2000, dated 2014)

Experiments:
S. aureus = experiment: gNO dose study, colony growth on agar plates; format: cell-based
Description: FIG. 6 depicts a S. aureus dosage curve for exposure to gaseous NO (gNO) with bacteria grown on solid media. Relative percentages of growth of S. aureus colony forming units (cfu) at 50, 80, 120 and 160 parts per million (ppm) of nitric oxide compared with growth of S. aureus cfu in medical air (100%) are shown.
To study the effects of gaseous nitric oxide on potential pathogens, a custom gas exposure incubator was designed and validated for temperature, humidity, and gas concentrations, providing an environment that matches that of a microbiologic incubator, while enabling controlled exposure of precise concentrations of the gas. […] The gNO chamber allowed control and adjustment of following factors in all in vitro studies: gNO dose, total air flow, NO2 levels, O2 levels, CO2 levels, temperature, and humidity. For the initial pilot studies, two strains of bacterial pathogen were selected based on two proposed clinical applications of gNO for respiratory infections and topical application. P. aeruginosa is associated primarily with pulmonary disease, but may also be associated with skin infection such as in severe burns. S. aureus is associated with surface wound infections. Both of these micro-organisms were chosen for the pilot study.
The first step in the process of evaluating the direct effect of gNO on bacteria was to design a simple study to determine what dose, if any, would be an approximate lethal concentration level for microbes. Once an optimal dose was estimated, then a timing study would be conducted. For these initial studies, highly dense inoculums of P. aeruginosa and S. aureus suspensions (10^8 cfu/ml) were plated onto agar plates. These plates were then exposed to various concentrations of gNO in the exposure device in order to evaluate the effect on colony growth.

Group B Streptococci = experiment: Bacteriocidal time study, 200 ppm gNO, saline suspension; format: cell-based, Group B Streptococcus
Description: (§1) Following the dose and time ranging studies, a series of experiments were performed to determine the time required to effectively induce a bacteriocidal effect with 200 parts per million of gNO, a concentration just above the dose used in the dose-ranging study, on a representative collection of drug resistant gram-positive and gram-negative strains of bacteria associated with clinical infection. A successful bacteriocidal effect was defined as a decrease in bacteria greater than 3 log10 cfu/ml. Further, C. albicans, Methicillin Resistant S. aureus (MRSA), a particularly resistant strain of P. aeruginosa from a cystic fibrosis patient, Group B Streptococcus, and M. smegmatis were also included to see if yeast, multi-drug resistant strains of bacteria, and actinomycetes have a similar response. The drug-resistant bacteria represent a variety of pathogens that contribute to both respiratory and wound infections.
(§2) For these experiments, saline was selected as a suspension media because it would not mask the direct effect of gNO as a bacteriocidal, whereas fully supplemented growth medium might introduce external variables (e.g., buffer or react with gNO). Other media might also provide metabolites and replenish nutrients that produce enzymes that protect bacteria from oxidative and nitrosative damage, thereby masking the effect of gNO. […] In saline, the colonies were static but remained viable. This is similar to the approach of Webert and Jean's use of animal models. Webert K E, et al (2000), Effects of inhaled nitric oxide in a rat model of Pseudomonas aeruginosa pneumonia, Crit. Care Med, 28(7):2397-2405 and Jean D, et al., (2002) Beneficial effects of nitric oxide inhalation on pulmonary bacterial clearance, Critical Care Medicine. 30(2):442-7.
(§3) The latent period was then followed by an abrupt death of all cells. Gram negative and gram positive bacteria, antibiotic resistant bacterial strains, yeast and mycobacteria were all susceptible to 200 ppm gNO. Of importance, is the observation that the two drug resistant bacteria strains were also susceptible.

[1] = Full thickness infected wound model, toxicity, serum NOx and methemoglobin; format: in vivo, rabbits
Source text: (§4) In vivo studies in animal models have further shown the beneficial effects of nitric oxide gas. In an animal model, full-thickness cutaneous wounds (Set A: four rabbits with eight 8.0 mm punch biopsies & Set B: 4 rabbits with two 50×15 mm wounds) were made on each side of dorsal midline and infected with equal volume of Staphylococcus aureus suspension on day zero. On day one, treated groups in A and B were respectively exposed to 200 and 400 ppm gNO for total of three days. Set A was exposed for two 4-hour sessions, interrupted by 1-hour of rest, inside a specialized restraining exposure chamber. A 24-hour continuous delivery model was used for animals in Set B by design of a specialized wound patch. Control groups were only exposed to medical grade air with corresponding flow rate. Four random sample punch biopsies (8.0 mm) were collected on post wounding days 3 and analyzed for bacterial content. Another four punch biopsies from both wound and normal skin tissue were collected for fibroblast viability analysis and toxic effects of gNO.
(§5) On average well over 10 fold drop (p<0.05) in bacterial content is observed in comparison between control and treated groups.
FIG. 12 indicates the level of methemoglobin (MetHb) in animal's blood following 6 day intermittent exposure to 200 ppm gNO.

human endothelial cells = experiment: Tube formation in matrigel; format: cell-based; conditions: 200 ppm NO versus air, 8 hours or 24 hours
Description: Left panels at 8 hours of exposure. Right panels at 24 hours of exposure.

collagenase mRNA = experiment: mRNA expression after gNO exposure; format: cell-based; conditions: 200 ppm gNO; 24 hours and 48 hours
Source text: Witte M B, et al, (2002) Nitric oxide enhances […] wound healing in diabetes, Br J. Surg., 89:1594-601. Thus, Applicants believe that NO may upregulate expression of both collagenase (MMP-1) and gelatinase (MMP-2), which may be important in keeping the wound clean from necrotic tissue while not prolonging the inflammatory phase.

Klebsiella sp. #1 = experiment: Bacteriocidal time study, 200 ppm gNO, saline suspension; format: cell-based
Description: as §1, §2, §3

Staphylococcus aureus = experiment: Full thickness infected wound model, wound bacterial content; format: in vivo, rabbits
Source text: FIG. 9 illustrates wound bacterial content following topical application of 200 ppm gNO in a full thickness infected wound model in rabbits.
as §4, with “Set A was exposed for two 4-hour sessions, interrupted by 1-hour of rest, inside a specialized restraining exposure chamber.” left out
as §5

MRSA = experiment: Bacteriocidal time study, 200 ppm gNO, saline suspension; format: cell-based, Methicillin Resistant S. aureus
Description: as §1, §2, §3

[N]=O [gNO, nitric oxide]
colony size and number after transfer to a conventional incubator (S. aureus; 24 hours after gNO exposure, controls overgrew): remained the same in size and number
time required to achieve the >90% reduction of colony formation (S. aureus; gNO greater than 120 ppm, agar plates): 8 to 12 h
reduction of colony formation (S. aureus; gNO greater than 120 ppm, agar plates, compared with medical air): greater than 90%
survival (S. aureus; increasing gNO to 120 ppm, agar plates): 5-10%
LD100 (Group B Streptococci): 2 h
Latent Period* (Group B Streptococci): 1 h
−2.5 Log10 (Group B Streptococci; time to −2.5 log10 cfu/ml): 1.5 hrs
blood serum NOx (NO2 and NO3) level ([1]; 200 ppm gNO intermittently for 6 days): None of the samples show an increased level of NOx
toxic effect or damage in the skin of treated animals ([1]; 200 ppm gNO, compared with control): no toxic effect or damage were observed
blood methemoglobin (MetHb) level ([1]; 6 day intermittent exposure to 200 ppm gNO, compared with air control): did not show an increase level of MetHB
tube formation (human endothelial cells): no significant difference
expression of collagenase mRNA (collagenase mRNA): increased
LD100 (Klebsiella sp. #1): 6 h
Latent Period* (Klebsiella sp. #1): 3 h
−2.5 Log10 (Klebsiella sp. #1; time to −2.5 log10 cfu/ml): 3.5 hrs
wound bacterial content (Staphylococcus aureus; 200 ppm gNO continuously for 72 hours, compared with medical air control): significant bacterial reduction
drop in wound bacterial content (Staphylococcus aureus; 400 ppm gNO, control versus treated, p<0.05): over 10 fold
LD100 (MRSA): 5 h
Latent Period* (MRSA): 3 h
−2.5 Log10 (MRSA; time to −2.5 log10 cfu/ml): 4.2 hrs
